Holding throughout (assay): level (log10 ratio to DMSO vehicle control); higher = higher biomarker level / cell amount than vehicle control
What all share (settings): in DMSO

Compound in experiment [1]: C=CC(=O)OCC(F)(F)C(F)(F)C(F)(F)C(F)(F)C(F)(F)C(F)(F)C(F)(F)F [1H,1H-Perfluorooctyl acrylate]
The protocol: (§1)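 BioMAP Diversity Plus panel of 12 human primary cell co-culture systems (3C, 4H, LPS, SAg, BT, BF4T, BE3C, CASM3C, HDF3CGF, KF3CT, MyoF, Mphg). Compounds were added 1 h before stimulation and left for 24 h (MyoF 48 h; BT 72 h for soluble read-outs or 6 d for IgG). Biomarkers were read by ELISA, cytotoxicity by SRB, PBMC viability and proliferation by Alamar Blue. Each well value was divided by the mean of 8 DMSO control wells on the same plate and log10 transformed; duplicate blinded samples were tested at 4 concentrations.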

Compound in experiment [2]: NCC(F)(F)C(F)(F)C(F)(F)C(F)(F)C(F)(F)C(F)(F)C(F)(F)F [1H,1H-Perfluorooctylamine]
The procedure:
as §1

Compound in experiment [3]: O=C(O)C(F)(F)C(F)(F)C(F)(F)OC(F)(C(F)(F)F)C(F)(F)F [Perfluoro-4-isopropoxybutanoic acid]
The procedure:
as §1

Compound in experiment [4]: O=C(O)C(F)(F)C(F)(F)OC(F)(F)F [Perfluoro-3-methoxypropanoic acid]
The protocol:
as §1

Compound in experiment [5]: O=C(O)C(F)(F)OC(F)(F)C(F)(F)OC(F)(F)F [Perfluoro-3,6-dioxaheptanoic acid]
The procedure: as §1

Compound in experiment [6]: O=S(=O)(O)C(F)(F)C(F)(F)C(F)(F)C(F)(F)C(F)(F)C(F)(F)F [Perfluorohexanesulfonic acid]
The protocol: as §1

Compound in experiment [7]: OCCC(F)(F)C(F)(F)C(F)(F)C(F)(F)C(F)(F)C(F)(F)F [6:2 Fluorotelomer alcohol]
The protocol:
as §1

We go through seven test systems from the supplement of paper PMC10331698.

± gives the standard deviation of the averaged measurements.

In the case of SAg:CXCL8/IL-8, the “level (log10)” value in experiment [1] (6700 nM) is -0.0135 ± 0.053; in experiment [1] (20000 nM), 0.001 ± 0.052; in experiment [1] (60000 nM) it was 0.003 ± 0.024; in experiment [2] (6700 nM), 0.058 ± 0.076; in experiment [2] (20000 nM), -0.0255 ± 0.011; in experiment [2] (60000 nM), 0.0065 ± 0.061. Besides, the “level (log10)” value was 0.009 ± 0.037 in experiment [3] (6700 nM); 0.02 ± 0.02 in experiment [3] (20000 nM); 0.071 ± 0.023 in experiment [3] (60000 nM); 0.021 ± 0.0028 in experiment [4] (6700 nM); -0.017 ± 0.034 in experiment [4] (20000 nM); 0.0095 ± 0.04 in experiment [4] (60000 nM). Moreover, the “level (log10)” value came out at 0.0055 ± 0.0035 in experiment [5] (6700 nM); 0.034 ± 0.0071 in experiment [5] (20000 nM); 0.0735 ± 0.04 in experiment [5] (60000 nM); 0.0185 ± 0.012 in experiment [6] (6700 nM); 0.019 ± 0.018 in experiment [6] (20000 nM); 0.107 ± 0.04 in experiment [6] (60000 nM). Further, the “level (log10)” value in experiment [7] (6700 nM) is -0.0035 ± 0.011; in experiment [7] (20000 nM), 0.0035 ± 0.0021.

For 4H:CCL26/Eotaxin-3, the “level (log10)” value in experiment [1] (6700 nM) was 0.002 ± 0.023; in experiment [1] (20000 nM) it was -0.002 ± 0.0057; in experiment [1] (60000 nM) it was -0.0005 ± 0.0021; in experiment [2] (6700 nM) it was 0.0225 ± 0.022; in experiment [2] (20000 nM), 0.008 ± 0.0014; in experiment [2] (60000 nM) it was 0.028 ± 0.023. Moreover, the “level (log10)” value in experiment [3] (6700 nM) is 0.0175 ± 0.042; in experiment [3] (20000 nM), -0.023 ± 0.0057; in experiment [3] (60000 nM) it was -0.0135 ± 0.00071; in experiment [4] (6700 nM), -0.013 ± 0.013; in experiment [4] (20000 nM) it was -0.0085 ± 0.019; in experiment [4] (60000 nM), 0.021 ± 0.0099. Moreover, the “level (log10)” value in experiment [5] (6700 nM) was -0.0115 ± 0.016; in experiment [5] (20000 nM), 0.0075 ± 0.0064; in experiment [5] (60000 nM) it was -0.024 ± 0.03; in experiment [6] (6700 nM), -0.0105 ± 0.00071; in experiment [6] (20000 nM), -0.001 ± 0.02; in experiment [6] (60000 nM) it was -0.047 ± 0.018. The “level (log10)” value in experiment [7] (6700 nM) was 0.0545 ± 0.013; in experiment [7] (20000 nM), 0.016 ± 0.04.

In the case of BF4T:CCL26/Eotaxin-3, the “level (log10)” value in experiment [1] (6700 nM) is -0.008 ± 0.016; in experiment [1] (20000 nM) it was -0.019 ± 0.03; in experiment [1] (60000 nM), -0.036 ± 0.031; in experiment [2] (6700 nM), 0.0175 ± 0.049; in experiment [2] (20000 nM), -0.0085 ± 0.016; in experiment [2] (60000 nM), 0.037 ± 0.037. In addition, the “level (log10)” value in experiment [3] (6700 nM) is -0.0055 ± 0.09; in experiment [3] (20000 nM) it was -0.0185 ± 0.069; in experiment [3] (60000 nM) it was -0.0105 ± 0.016; in experiment [4] (6700 nM) it was -0.033 ± 0.0085; in experiment [4] (20000 nM), -0.031 ± 0.016; in experiment [4] (60000 nM) it was 0.02 ± 0.057. In addition, the “level (log10)” value in experiment [5] (6700 nM) was -0.039 ± 0.048; in experiment [5] (20000 nM), -0.0195 ± 0.021; in experiment [5] (60000 nM), -0.0615 ± 0.1; in experiment [6] (6700 nM), 0.003 ± 0.0099; in experiment [6] (20000 nM) it was -0.001 ± 0.02; in experiment [6] (60000 nM), -0.0165 ± 0.037. Moreover, the “level (log10)” value in experiment [7] (6700 nM) was -0.0055 ± 0.15; in experiment [7] (20000 nM), -0.023 ± 0.081.

Consider BT:B cell Proliferation, for which the “level (log10)” value in experiment [1] (6700 nM) is -0.0405 ± 0.05; in experiment [1] (20000 nM), -0.0195 ± 0.056; in experiment [1] (60000 nM) it was -0.052 ± 0.048; in experiment [2] (6700 nM), 0.0105 ± 0.025; in experiment [2] (20000 nM), 0.0195 ± 0.016; in experiment [2] (60000 nM), 0.039 ± 0.023. For the same test system, the “level (log10)” value is -0.002 ± 0.0071 in experiment [3] (6700 nM); 0.0275 ± 0.0092 in experiment [3] (20000 nM); 0.065 ± 0.016 in experiment [3] (60000 nM); -0.022 ± 0.023 in experiment [4] (6700 nM); 0.0015 ± 0.022 in experiment [4] (20000 nM); 0.0135 ± 0.005 in experiment [4] (60000 nM). Besides, the “level (log10)” value in experiment [5] (6700 nM) is 0.015 ± 0.0028; in experiment [5] (20000 nM), 0.031 ± 0.048; in experiment [5] (60000 nM) it was 0.0535 ± 0.042; in experiment [6] (6700 nM), -0.0075 ± 0.047; in experiment [6] (20000 nM), 0.0015 ± 0.053; in experiment [6] (60000 nM), 0.063 ± 0.024. Also, the “level (log10)” value in experiment [7] (6700 nM) was 0.022 ± 0.0057; in experiment [7] (20000 nM), -0.01 ± 0.014.

On to 4H:VEGFR2, for which the “level (log10)” value in experiment [1] (6700 nM) is -0.0075 ± 0.0035; in experiment [1] (20000 nM), 0.0045 ± 0.0064; in experiment [1] (60000 nM), 0.0235 ± 0.019; in experiment [2] (6700 nM) it was 0.0225 ± 0.015; in experiment [2] (20000 nM), -0.012 ± 0.0042; in experiment [2] (60000 nM) it was -0.017 ± 0.0085. For the same test system, the “level (log10)” value was -0.0575 ± 0.015 in experiment [3] (6700 nM); -0.056 ± 0.037 in experiment [3] (20000 nM); -0.0215 ± 0.088 in experiment [3] (60000 nM); -0.085 ± 0.041 in experiment [4] (6700 nM); -0.0895 ± 0.05 in experiment [4] (20000 nM); -0.009 ± 0.093 in experiment [4] (60000 nM). Further, the “level (log10)” value is -0.035 ± 0.0099 in experiment [5] (6700 nM); -0.009 ± 0.048 in experiment [5] (20000 nM); -0.013 ± 0.0071 in experiment [5] (60000 nM); -0.021 ± 0.037 in experiment [6] (6700 nM); -0.0125 ± 0.052 in experiment [6] (20000 nM); 0.03 ± 0.038 in experiment [6] (60000 nM). In addition, the “level (log10)” value in experiment [7] (6700 nM) is -0.058 ± 0.024; in experiment [7] (20000 nM), -0.072 ± 0.078.

For the test system BE3C:HLA-DR, the “level (log10)” value in experiment [1] (6700 nM) is -0.0055 ± 0.005; in experiment [1] (20000 nM), -0.0025 ± 0.005; in experiment [1] (60000 nM) it was 0.0055 ± 0.012; in experiment [2] (6700 nM), -0.001; in experiment [2] (20000 nM), -0.0145 ± 0.011; in experiment [2] (60000 nM), -0.0065 ± 0.0092. In addition, the “level (log10)” value is -0.0045 ± 0.025 in experiment [3] (6700 nM); -0.0045 ± 0.016 in experiment [3] (20000 nM); 0.0105 ± 0.011 in experiment [3] (60000 nM); -0.014 ± 0.0014 in experiment [4] (6700 nM); 0.003 ± 0.023 in experiment [4] (20000 nM); -0.0035 ± 0.033 in experiment [4] (60000 nM). The “level (log10)” value in experiment [5] (6700 nM) is -0.0205 ± 0.054; in experiment [5] (20000 nM), -0.01 ± 0.035; in experiment [5] (60000 nM) it was -0.0225 ± 0.056; in experiment [6] (6700 nM), -0.014 ± 0.031; in experiment [6] (20000 nM), -0.0285 ± 0.013; in experiment [6] (60000 nM), -0.0585 ± 0.028. The “level (log10)” value in experiment [7] (6700 nM) worked out at 0.003; in experiment [7] (20000 nM), 0.005 ± 0.02.

For the test system 4H:CCL2/MCP-1, the “level (log10)” value in experiment [1] (6700 nM) is -0.0145 ± 0.00071; in experiment [1] (20000 nM) it was -0.015 ± 0.0028; in experiment [1] (60000 nM), 0.0165 ± 0.026; in experiment [2] (6700 nM) it was 0.0075 ± 0.028; in experiment [2] (20000 nM), -0.0195 ± 0.018; in experiment [2] (60000 nM), 0.01 ± 0.044. Also, the “level (log10)” value in experiment [3] (6700 nM) was 0; in experiment [3] (20000 nM) it was -0.0255 ± 0.005; in experiment [3] (60000 nM), 0.0155 ± 0.059; in experiment [4] (6700 nM), -0.0045 ± 0.039; in experiment [4] (20000 nM), -0.0095 ± 0.0092; in experiment [4] (60000 nM), 0.003. Also, the “level (log10)” value in experiment [5] (6700 nM) is -0.0265 ± 0.037; in experiment [5] (20000 nM), -0.0345 ± 0.018; in experiment [5] (60000 nM) it was 0.031 ± 0.0085; in experiment [6] (6700 nM) it was -0.0205 ± 0.044; in experiment [6] (20000 nM), -0.049 ± 0.031; in experiment [6] (60000 nM), -0.0195 ± 0.054. Also, the “level (log10)” value is 0.009 ± 0.0085 in experiment [7] (6700 nM) and -0.0065 ± 0.018 in experiment [7] (20000 nM).
